Experiment [1] concerns melatonin production (urinary aMT.6S excretion). Kind of experiment: 6-Sulphatoxymelatonin rhythmicity after agonist administration at CT18. The format is in vivo, rat. As to conditions: DOI 0.5 mg/kg (1.4 μmole/kg) at CT18, rats in continuous darkness. On the procedure: (§1) Male albino wistar rats (100 g, n=5-10) were housed in metabolism cages in lightproof environment chambers in 12 hours of light followed by 12 hours of darkness, designated 12L:12D. After 3-4 days acclimation to a liquid diet (Osmolite HN) hourly urine collections commenced. The general experimental design was:
Night 1: Control collection-lights remained off from lights out for the remainder of the experiment.
Night 2: Drug administration or light pulses administered at CT 18, i.e., 6 hours after the subjective lights out. Urine collections were maintained throughout the subjective night.
Nights 3 & 4: Urine collections continued to determine any entraining effects of the stimuli.
(§2) Melatonin production was monitored by the urinary excretion of 6-sulphatoxymelatonin (aMT.6S), determined by radioimmunoassay. The time of onset of metabolite excretion was defined as the time of day that the excretion rate exceeded 20 pmol/h.
Two lighting conditions were used to investigate the effects of drugs on SCN/pineal gland function; animals held in a light: dark cycle (L:D; Type VI method of Aschoff) and animals acutely transferred to continuous darkness (DD; Type II method of Aschoff) [Aschoff J. Response curves in circadian periodicity. In Aschoff J., ed. Circadian Clocks. Amsterdam: North Holland Publishing, 1965:95-111]. […]

Experiment [2] concerns core body temperature rhythm. Put plainly: Core body temperature rhythm studies. The class given is in vivo, rat. As to conditions: DOI 0.5 mg/kg subcutaneously at CT18, rats. As to the method:
Groups of 5 rats were implanted with temperature transmitters under 3% halothane/oxygen anaesthesia and kept in individual cages on a 12L: 12D photoperiod. Five days after implanting the transmitters, the lights were turned off at the normal time (ZT12) and remained off for 5 days. The animals were injected subcutaneously with either DOI (0.5 mg/kg) or saline vehicle at CT18 (ie 30 hours after last lights off). The temperature was sampled at 10 minute intervals. Five days after the drug treatment the animals were re-entrained to the LD cycle for 8 days and either exposed to a 5 minute/20 lux light pulse 30 hours after re-initiation of constant darkness or left untreated. To determine any delays in the temperature rhythm, the time of the day that the temperature dropped below the group daily mean (37.4° C.) was calculated and the mean delay±SEM determined.

Experiment [3] has as its system DOI induced phase delay in melatonin production. Kind of experiment: Effects of serotonin antagonists on the melatonin response to DOI. The note with it: antagonist 0.07 μmole/kg 30 minutes prior to DOI (1.4 μmole/kg) at CT18. The class given is in vivo, rat. On the procedure:
as §1, §2
The effects of the serotonin antagonists ritanserin and ketanserin on the melatonin response to DOI was determined. Both drugs were administered in doses of 0.7, 0.28 and 0.07 μmole/kg, 30 minutes prior to DOI (1.4 μmole/kg; 0.5 mg/kg) at CT 18; In addition, ritanserin (6.3 μmole/kg) and ketanserin (18 μmole/kg) were administered 30 minutes prior to saline injection at CT 18. Both antagonists were dissolved in DMSO and injected in a volume of 200 μl.

Experiment [4] deals with DOI induced c-Fos in the rat SCN. Kind of experiment: Effects of antagonists on DOI induced c-Fos in the SCN. The class given is in vivo. As to the method: As a check on the specificity of the response (SCN versus direct pineal effects) experiments were also conducted to monitor c-Fos induction in the SCN in response to the treatments. Animals were sacrificed by decapitation 2 hours after treatments. Brains were removed immediately and fixed by immersion in a 4% solution of paraformaldehyde in 0.1 M buffer (pH 7.4) at room temperature. After approximately 30 hours in the fixative solution at room temperature, the brains were briefly rinsed in phosphate buffered saline (PBS) and 70 μm coronal sections were obtained on a microtome. Free floating sections were permeabilised in a 0.3% solution of Triton X-100 in PBS at 4° C. overnight. […] The immunopositive cells were quantified using a computerised image analysis system.
To determine the effects of the antagonists on c-Fos induction in the SCN, ritanserin and ketanserin were injected in doses of 1.4, 0.7 and 0.14 μmole/kg at ZT 17.5. […] The response to ritanserin (6.3 μmole/kg) and ketanserin (18 μmole/kg) administered 30 minutes prior to saline injection at CT 18 was also determined.

The subject of experiment [5] is light pulse induced phase delay in aMT.6S onset. Kind of experiment: Effect of serotonin antagonists on the melatonin response to a light pulse. The format is in vivo, rat. As to conditions: metergoline 15 mg/kg or ritanserin 3 mg/kg at CT17.5, light 2 lux/1 minute at CT18. As to the method:
Male albino wistar rats (100 g, n=5-10) were housed in metabolism cages in lightproof environment chambers in 12 hours of light followed by 12 hours of darkness, designated 12L:12D. After 3-4 days acclimation to a liquid diet (Osmolite HN) hourly urine collections commenced. The general experimental design was: Melatonin production was monitored by the urinary excretion of 6-sulphatoxymelatonin (aMT.6S), determined by radioimmunoassay. The time of onset of metabolite excretion was defined as the time of day that the excretion rate exceeded 20 pmol/h. To determine the effects of the serotonin antagonist, metergoline (15 mg/kg), ritanserin (3 mg/kg) and LY-53,857 (3 mg/kg) on the melatonin response to a light pulse, the drugs were administered at CT17.5. At CT18, a 2 lux light pulse was given for one minute. Using similar methodology the effects on c-fos induction in the SCN were determined.

Another experiment has as its target T1, 5-HT2c receptors (Homo sapiens, UniProt P28335).
T1 sequence (P28335 33-458): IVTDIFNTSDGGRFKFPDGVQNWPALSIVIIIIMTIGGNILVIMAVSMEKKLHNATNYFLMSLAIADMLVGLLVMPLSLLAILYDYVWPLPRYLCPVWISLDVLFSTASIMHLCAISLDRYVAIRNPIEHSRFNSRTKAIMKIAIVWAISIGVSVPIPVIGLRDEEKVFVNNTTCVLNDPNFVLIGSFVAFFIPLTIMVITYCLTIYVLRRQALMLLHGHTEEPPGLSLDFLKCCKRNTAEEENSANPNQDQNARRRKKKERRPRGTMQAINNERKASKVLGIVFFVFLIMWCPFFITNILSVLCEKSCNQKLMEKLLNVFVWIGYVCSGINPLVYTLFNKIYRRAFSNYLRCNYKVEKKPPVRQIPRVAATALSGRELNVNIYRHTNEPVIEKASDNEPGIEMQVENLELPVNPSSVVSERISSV
The note with it: ritanserin versus ketanserin, stated as known; cited from earlier work.

SMILES strings stand for the structures.

Take `COc1cc(CC(C)N)c(OC)cc1I` (racemic) [DOI, (+/−)-1-(4-iodo-2,5-dimethoxy-phenyl)-2-aminopropane]: the “melatonin metabolite (aMT.6S) excretion immediately following injection” value in experiment [1] is given as “acute decrease”. Further, in experiment [2], the “morning decline in body temperature” value is on record as “significantly delayed”.
Turning to `O=C(c1ccc(F)cc1)C1CCN(CCn2c(=O)[nH]c3ccccc3c2=O)CC1` [ketanserin], the “effect on DOI induced phase delay in melatonin production” value in experiment [3] is recorded as “ineffective”. Further, in experiment [4] (antagonist 0.7 μmole/kg 30 minutes before DOI (1.4 μmole/kg)), the “number of cells positive for c-Fos per unilateral SCN after DOI” value is “significantly greater (P<0.05) than those observed following ritanserin 0.7 μmole/kg but not significantly different from the vehicle control”.
As for `CN1C[C@H](CNC(=O)OCc2ccccc2)C[C@@H]2c3cccc4c3c(cn4C)C[C@H]21` [metergoline], the “block of the phase delay in aMT.6S onset induced by the light pulse” value in experiment [5] is reported as “failure of the antagonists to block the phase delay”.
Take `Cc1nc2sccn2c(=O)c1CCN1CCC(=C(c2ccc(F)cc2)c2ccc(F)cc2)CC1` [ritanserin]: the “effect on DOI induced phase delay in melatonin production” value in experiment [3] is listed as “inhibits”. For the same compound, the “block of the phase delay in aMT.6S onset induced by the light pulse” value in experiment [5] is “failure of the antagonists to block the phase delay”. Further, the “inhibition of the increase in appearance of c-Fos caused by a 5-HT2c high affinity compound” value in experiment [4] (comparison of ritanserin with ketanserin pre-treatment) is on record as “greater effect than ketanserin”. Also, the “affinity for 5-HT2c receptors relative to ketanserin” value on 5-HT2c receptors was 10 fold.

The values are drawn from patent US6403651B1, “Mediation of circadian rhythms” (Luminis Pty Limited, priority 1997, dated 2002).
